Test results reported in PubChem BioAssay AID1648 (Sanford-Burnham Center for Chemical Genomics, 2009).
Calls of active or inactive are those of the source. How the calls were made is not given here.

What follows are compounds tested against Serine/threonine-protein kinase mTOR (Homo sapiens) (UniProt P42345) (assay: binders of mTOR FRB domain, biophysical, NMR (AID 1648)). Details: NMR binding to FRB domain, chemical shift.
Chain of Serine/threonine-protein kinase mTOR (Homo sapiens) (P42345 2015-2114): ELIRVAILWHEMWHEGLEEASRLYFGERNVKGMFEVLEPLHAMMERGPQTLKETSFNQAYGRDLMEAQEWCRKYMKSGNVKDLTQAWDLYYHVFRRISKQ
In the case of CC(CO)NC(=O)C1C=C2c3cccc4[nH]cc(c34)C[C@H]2N(C)C1 (some centres undefined), the Kd is reported as > 4 mM (inactive).
For COc1cc(C2NC(=S)NC(C)=C2C(C)=O)ccc1O (centres undefined), the Kd was > 4 mM (inactive).
For CC(=O)NC1C(=O)Nc2c(C)cc(C)cc21 (centres undefined), the Kd was > 4 mM (inactive).
In the case of CC1(C)N=C2C(=[N+]1[O-])CCC/C2=N\O, the Kd is reported as > 4 mM (inactive).
In the case of C=CCNC(=O)c1ccc(Cl)cc1Cl, the Kd is reported as > 4 mM (inactive).
COc1ccc2c(c1)=C(c1sc(N)nc1O)C(=O)N=2 was tested, and the Kd was > 4 mM (inactive).
CC1(C)CC23C(=O)CCC(O)C2(C)CCC13 (centres undefined) was tested, and the Kd was > 4 mM (inactive).
For COc1cccc(/C=C/C(=O)O)c1C(C)C, the Kd was > 4 mM (inactive).
In the case of Cc1nc2ccccc2c(=O)[nH]1, the Kd is reported as > 4 mM (inactive).
With NCc1nc2ccccc2s1 the Kd was > 4 mM (inactive).
With OCC1=Cc2ccccc2OC1 the Kd was > 4 mM (inactive).
For OCC1CCCCCN1 (centres undefined), the Kd was > 4 mM (inactive).
O=C(Nc1ccncc1)c1c(F)cccc1F was tested, and the Kd was > 4 mM (inactive).
For S=c1ccc(N2CCCCC2)n[nH]1, the Kd was > 4 mM (inactive).
Cc1nnc(SCc2ccon2)n1-c1ccccc1 was tested, and the Kd was > 4 mM (inactive).
In the case of c1ccc(CNc2ncnc3nc[nH]c23)nc1, the Kd is reported as > 4 mM (inactive).
In the case of CC(=O)NC(=S)Nc1ccc(S(N)(=O)=O)cc1, the Kd is reported as > 4 mM (inactive).
For O=C(NCc1cccs1)c1ccc2c(c1)OCCO2, the Kd was > 4 mM (inactive).
O=C(c1ccc(Cl)c(F)c1F)N1CCCC1 was tested, and the Kd was > 4 mM (inactive).
Cc1cccc(CSc2nncc(=O)[nH]2)c1 was tested, and the Kd was > 4 mM (inactive).
In the case of CNC(Cc1c[nH]c2ccccc12)C(=O)O (centres undefined), the Kd is reported as > 4 mM (inactive).
For CN(C)C(=O)c1ccc(-c2n[nH]c(=O)c3ccccc23)cc1, the Kd was > 4 mM (inactive).
Nc1nnc(SCc2ccc3c(c2)OCO3)s1 was tested, and the Kd was > 4 mM (inactive).
CN1CCC[C@H]1c1cccnc1 was tested, and the Kd was > 4 mM (inactive).
In the case of CC(=O)Nc1cnn(Cc2ccc(Br)cc2)c1, the Kd is reported as > 4 mM (inactive).
For CC(=O)C1=C(O)C(=O)NC1c1ccccc1 (centres undefined), the Kd was > 4 mM (inactive).
O=C(O)c1ccc(-n2cccn2)cc1 was tested, and the Kd was > 4 mM (inactive).
With CN1CCC(NC(=O)c2cccnc2)CC1 the Kd was > 4 mM (inactive).
CCCNC(=O)c1cnc2n(c1=O)CCS2 was tested, and the Kd was > 4 mM (inactive).
For O=P(c1ccccc1)(c1ccccc1)C1CCOCC1, the Kd was > 4 mM (inactive).
For COc1cnn(Cc2ccccc2)c(=O)c1Cl, the Kd was > 4 mM (inactive).
Cc1nc2nc(COc3ccccc3)nn2c(C)c1Cl was tested, and the Kd was > 4 mM (inactive).
For OC12CC3CC(C1)C1(NCCS1)C(C3)C2 (centres undefined), the Kd was > 4 mM (inactive).
For S=C(c1ccc(N2CCOCC2)cc1)N1CCCCC1, the Kd was > 4 mM (inactive).
For Cc1cc(N(CN2CCCC2=O)C(=O)c2ccccc2)no1, the Kd was > 4 mM (inactive).
In the case of Clc1ccc(-n2ccnc2)nn1, the Kd is reported as > 4 mM (inactive).
In the case of NC(=O)c1ccc(N=Cc2ccc[nH]2)cc1, the Kd is reported as > 4 mM (inactive).
For CCC1(CC)C(=O)N=C(N)NC1=O, the Kd was > 4 mM (inactive).
C[C@@H]1O[C@@H](O[C@H]2[C@@H](Oc3cc(O)c4c(c3)O[C@H](c3ccc(O)cc3)CC4=O)O[C@H](CO)[C@@H](O)[C@@H]2O)[C@H](O)[C@H](O)[C@H]1O was tested, and the Kd was > 4 mM (inactive).
In the case of O=C(c1ccccc1-c1ccccc1)N1CCOCC1, the Kd is reported as > 4 mM (inactive).
C=C[C@@H](C1=CC(=O)C(OC)=C(OC)C1=O)c1ccccc1 was tested, and the Kd was > 4 mM (inactive).
Cn1cccc1C(=O)NS(=O)(=O)c1ccccc1Cl was tested, and the Kd was > 4 mM (inactive).
For O=C(O)C1CNc2ccccc2O1 (centres undefined), the Kd was > 4 mM (inactive).
In the case of O=C(NC(=S)NCc1cccnc1)c1ccco1, the Kd is reported as > 4 mM (inactive).
In the case of Cc1c(CCO)c(=O)n2c([nH]c3ccccc32)c1C#N, the Kd is reported as > 4 mM (inactive).
For CNC(=S)Nc1cccc(C(=O)O)c1, the Kd was > 4 mM (inactive).
For Cc1cc2nc(SCC(=O)O)nc(C)c2cc1C, the Kd was > 4 mM (inactive).
For O=C(O)C1CCCCN1Cc1ccccc1 (centres undefined), the Kd was > 4 mM (inactive).
CC(=O)Nc1cccc(N2CCCC2=O)c1 was tested, and the Kd was > 4 mM (inactive).
